Measured values published in patent US8202877B2, “Aminopyrimidinamides as pesticides” (Bayer CropScience AG, priority 2009, dated 2012).

test system: not listed separately; experiment: logP (HCOOH), physicochemical characterization; conditions: not given

SMILES	logP (HCOOH)
Cc1ncccc1C(=O)Nc1c(NC2CC2)ncnc1-c1ccc(F)cc1 [1-1]	0.71
CCc1ncccc1C(=O)Nc1c(NC2CC2)ncnc1-c1ccc(SC(F)(F)F)cc1 [1-114]	1.4
O=C(Nc1c(NC2CC2)ncnc1-c1ccccc1)c1cccnc1 [1-128]	0.63
CCc1ncccc1C(=O)Nc1c(NC2CC2)ncnc1-c1ccc(C#N)cc1 [1-133]	1.10
CCc1ncccc1C(=O)Nc1c(NC2CC2)ncnc1-c1ccc(F)cc1Cl [1-139]	0.79
CCOc1ncccc1C(=O)Nc1c(NC2CC2)ncnc1-c1ccc(C#N)cc1 [1-160]	1.80
CCc1ncccc1C(=O)Nc1c(NC2CC2)ncnc1-c1ccc(F)cc1C [1-180]	1.10
CCc1ncccc1C(=O)Nc1c(NC2CC2)ncnc1-c1ccccc1C [1-182]	0.94
CCc1ncccc1C(=O)Nc1c(NC2CC2)ncnc1-c1ccc(Cl)cc1C [1-188]	1.40
O=C(Nc1c(NC2CC2)ncnc1-c1ccc(Cl)cc1)c1c(F)cccc1Cl [1-263]	2.20
CCCc1ncccc1C(=O)Nc1c(NC2CC2)ncnc1-c1ccc(Cn2nc(C(F)(F)F)nc2C(F)(F)F)cc1 [1-264]	1.9
CCc1ncccc1C(=O)Nc1c(NC2CC2)nc(C)nc1-c1ccccc1 [1-275]	0.76
CCc1ncccc1C(=O)Nc1c(NC2CC2)nc(C)nc1-c1ccc(F)cc1 [1-276]	0.88
CCc1ncccc1C(=O)Nc1c(NC2CC2)nc(C)nc1-c1ccc(F)cc1F [1-278]	1
CCc1ncccc1C(=O)Nc1c(Br)ncnc1NC1CC1 [3-3]	0.84
O=C(Nc1c(NC2CC2)ncnc1-c1ccc(F)cc1)c1ccnn1-c1ccc(F)cc1 [9-1]	1.70
O=C(Nc1c(NC2CC2)ncnc1-c1ccc(F)cc1)c1ccnn1-c1ccc(Cl)cc1 [9-2]	2.02
O=C(Nc1c(NC2CC2)ncnc1-c1ccc(F)cc1)c1ccnn1-c1ccccc1Cl [9-3]	1.76
O=C(Nc1c(NC2CC2)ncnc1-c1ccc(Cl)cc1)c1ccnn1-c1ccccc1Cl [9-4]	2.05

test system: Spodoptera litura third instar larvae; experiment: not given; conditions: active compound concentration of 100 ppm; sweet potato leaves immersed; after 7 days

SMILES	insecticidal activity
CCc1ncccc1C(=O)Nc1c(NC2CC2)ncnc1-c1ccc(Cl)cc1 [1-177, N-[4-(4-Chlorophenyl)-6-cyclopropylaminopyrimidin-5-yl]-2-ethylnicotinamide]	100%
CCc1ncccc1C(=O)Nc1c(NC2CC2)ncnc1-c1ccc(C(F)(C(F)(F)F)C(F)(F)F)cc1 [1-232]	100%
O=C(Nc1c(NC2CC2)ncnc1-c1ccccc1)c1cccnc1C1CC1 [1-234]	100%
O=C(Nc1c(NC2CC2)ncnc1-c1ccc(F)cc1)c1cccnc1C1CC1 [1-235]	100%
O=C(Nc1c(NC2CC2)ncnc1-c1ccc(Cl)cc1)c1cccnc1C1CC1 [1-236]	100%
CCCc1ncccc1C(=O)Nc1c(NC2CC2)ncnc1-c1ccccc1 [1-237]	100%
CCCc1ncccc1C(=O)Nc1c(NC2CC2)ncnc1-c1ccc(F)cc1 [1-238]	100%
CCCc1ncccc1C(=O)Nc1c(NC2CC2)ncnc1-c1ccc(Cl)cc1 [1-239]	100%
O=C(Nc1c(NC2CC2)ncnc1-c1ccc(F)cc1F)c1cccnc1C1CC1 [1-240]	100%
O=C(Nc1c(NC2CC2)ncnc1-c1ccc(Cl)cc1)c1cccnc1C(F)(F)C(F)(F)F [1-241]	100%
N#Cc1ccc(-c2ncnc(NC3CC3)c2NC(=O)c2cccnc2C2CC2)cc1 [1-242]	100%
O=C(Nc1c(NC2CC2)ncnc1-c1ccc(OC(F)(F)F)cc1)c1cccnc1C1CC1 [1-243]	100%
CCCc1ncccc1C(=O)Nc1c(NC2CC2)ncnc1-c1ccc(Cl)cc1Cl [1-244]	100%
CCCc1ncccc1C(=O)Nc1c(NC2CC2)ncnc1-c1ccc(F)cc1F [1-245]	100%
CCCc1ncccc1C(=O)Nc1c(NC2CC2)ncnc1-c1ccc(C#N)cc1 [1-246]	100%
CCc1ncccc1C(=O)Nc1c(NC2CC2)ncnc1-c1ccc(Cn2nc(C(F)(F)C(F)(F)F)cc2C(F)(F)F)cc1 [1-247]	100%
O=C(Nc1c(NC2CC2)ncnc1-c1ccc(Cn2nc(C(F)(F)F)cc2C(F)(F)F)cc1)c1cccnc1C1CC1 [1-252]	100%
O=C(Nc1c(NC2CC2)ncnc1-c1ccc(Cn2nc(C(F)(F)C(F)(F)F)cc2C(F)(F)F)cc1)c1cccnc1C1CC1 [1-253]	100%
O=C(Nc1c(NC2CC2)ncnc1-c1ccc(F)cc1F)c1cccnc1CC(F)(F)F [1-254]	100%
CCc1ccccc1C(=O)Nc1c(NC2CC2)ncnc1-c1ccc(OC(F)(F)F)cc1 [1-257]	100%
CCc1ncccc1C(=O)Nc1c(NC2CC2)ncnc1-c1ccc(Cn2nc(C(F)(F)F)nc2C(F)(F)F)cc1 [1-258]	100%

SMILES	insecticidal activity
O=C(Nc1c(NC2CC2)ncnc1-c1ccc(Cn2nc(C(F)(F)F)nc2C(F)(F)F)cc1)c1cccnc1C1CC1 [1-259]	100%
CCCc1ncccc1C(=O)Nc1c(NC2CC2)ncnc1-c1ccc(Cn2nc(C(F)(F)F)nc2C(F)(F)F)cc1 [1-264]	100%
CCc1ccccc1C(=O)Nc1c(NC2CC2)ncnc1-c1ccc(Cn2nc(C(F)(F)F)nc2C(F)(F)F)cc1 [1-265]	100%
CCc1ncccc1C(=O)Nc1c(NC2CC2)ncnc1-c1ccc(Cn2ccc(C(F)(F)C(F)(F)F)n2)cc1 [1-266]	100%
CCc1ncccc1C(=O)Nc1c(NC2CC2)ncnc1-c1ccc(Cn2ccc(C(F)(F)C(F)(F)C(F)(F)F)n2)cc1 [1-267]	100%
CCc1ncccc1C(=O)Nc1c(NC2CC2)ncnc1-c1ccc(Cn2nc(C(F)(F)F)cc2C(F)(F)F)cc1 [1-268]	100%
CCc1ncccc1C(=O)Nc1c(NC2CC2)ncnc1-c1ccc(Cn2nc(C(F)(F)C(F)(F)F)cc2C(F)(F)C(F)(F)F)cc1 [1-269]	100%
CCc1ccccc1C(=O)Nc1c(NC2CC2)ncnc1-c1ccc(Cn2cnc(C(F)(F)F)n2)cc1 [1-286]	100%
CCc1ncccc1C(=O)Nc1c(NC2CC2)ncnc1-c1ccc(Oc2ncc(C(F)(F)F)cc2Cl)cc1 [1-310]	100%
CCc1ncccc1C(=O)Nc1c(NC2CC2)ncnc1-c1ccc(Oc2ncccc2C(F)(F)F)cc1 [1-311]	100%
CCc1ncccc1C(=O)Nc1c(NC2CC2)ncnc1-c1ccc(Oc2cccc(C(F)(F)F)n2)cc1 [1-312]	100%
CCc1ncccc1C(=O)Nc1c(NC2CC2)nc(C(F)(F)F)nc1-c1ccc(F)cc1 [1-313]	100%
CCc1ncccc1C(=O)Nc1c(NC2CC2)nc(C(F)(F)F)nc1-c1ccc(F)cc1F [1-314]	100%
CCc1ncccc1C(=O)Nc1c(NC2CC2)ncnc1-c1ccc(Oc2nc(C(F)(F)F)cc(C(F)(F)C(F)(F)F)n2)cc1 [1-317]	100%
CCc1ncccc1C(=O)Nc1c(NC2CC2)ncnc1-c1ccc(Cc2nc(C(F)(F)C(F)(F)C(F)(F)F)n(C)n2)cc1 [1-318]	100%
CCc1ncccc1C(=O)Nc1c(NC2CC2)ncnc1-c1ccc(Cc2n[nH]c(C(F)(F)C(F)(F)C(F)(F)F)n2)cc1 [1-319]	100%
O=C(Nc1c(NC2CC2)nc(C(F)(F)F)nc1-c1ccc(F)cc1)c1cccnc1CC(F)(F)F [1-324]	100%
O=C(Nc1c(NC2CC2)nc(Cl)nc1-c1ccc(F)cc1)c1cccnc1CC(F)(F)F [1-325]	100%
CCc1ncccc1C(=O)Nc1c(NC2CC2)nc(Cl)nc1-c1ccc(F)cc1 [1-326]	100%
CCc1ncccc1C(=O)Nc1c(Cl)ncnc1Nc1ccc(F)cc1 [5-2]	100%
